Reference: the supplement of paper PMC4862054

Tests used:
Experiment in all cases: normalised viability (% of control), CellTiter-Blue; higher = more viable cells (about 100 = DMSO control)
HDQ-P1 [1] = details: 3 nM; incubation time: 72 h
Summary of the method: (§1)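 Breast cancer cell lines in 20 µl suspension were seeded onto 384-well plates pre-loaded with compound dissolved in 5 µl medium, then incubated 72 h. CellTiter-Blue reagent (2.5 µl) was added for 2 h at 37 °C and fluorescence read at 560/590 nm. Each plate was normalised to vehicle (100) and a positive kill control (0), with Z'-factor quality control. The value is normalised viability at one listed concentration of the series.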

MDA-MB-453 [2] = details: 3 nM; incubation time: 72 h
Summary of the method: as §1

MDA-MB-436 = details: 10 nM; incubation time: 72 h
Summary of the method: as §1

BT-474 = details: 10 nM; incubation time: 72 h
Summary of the method: as §1

BT-549 = details: 10 nM; incubation time: 72 h
Summary of the method: as §1

CAL-51 [3] = details: 3 nM; incubation time: 72 h
Summary of the method: as §1

CAL-120 = details: 10 nM; incubation time: 72 h
Summary of the method: as §1

MDA-MB-231 = details: 10 nM; incubation time: 72 h
Summary of the method: as §1

HCC1599 = details: 10 nM; incubation time: 72 h
Summary of the method: as §1

MFM-223 = details: 10 nM; incubation time: 72 h
Summary of the method: as §1

HCC1937 = details: 10 nM; incubation time: 72 h
Summary of the method: as §1

Hs578T = details: 10 nM; incubation time: 72 h
Summary of the method: as §1

MDA-MB-468 = details: 10 nM; incubation time: 72 h
Summary of the method: as §1

DU-4475 [4] = details: 3 nM; incubation time: 72 h
Summary of the method: as §1

HDQ-P1 [5] = details: 300 nM; incubation time: 72 h
Protocol: (§2)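 DSRT, CellTiter-Blue viability, 72 h incubation. Signal is normalised to DMSO and benzethonium chloride controls. Value is the normalised response at dose 6.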

MDA-MB-453 [6] = details: 300 nM; incubation time: 72 h
Protocol: as §2

CAL-51 [7] = details: 300 nM; incubation time: 72 h
Protocol: as §2

CAL-148 [8] = details: 300 nM; incubation time: 72 h
Protocol: as §2

CAL-85-1 [9] = details: 300 nM; incubation time: 72 h
Protocol: as §2

DU-4475 [10] = details: 300 nM; incubation time: 72 h
Protocol: as §2

HDQ-P1 [11] = details: 10000 nM; incubation time: 72 h
Protocol: (§3)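 DSRT, CellTiter-Blue viability, 72 h incubation. Signal is normalised to DMSO and benzethonium chloride controls. Value is the normalised response at dose 9.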

MDA-MB-453 [12] = details: 10000 nM; incubation time: 72 h
Protocol: as §3

CAL-51 [13] = details: 10000 nM; incubation time: 72 h
Protocol: as §3

CAL-148 [14] = details: 10000 nM; incubation time: 72 h
Protocol: as §3

CAL-85-1 [15] = details: 10000 nM; incubation time: 72 h
Protocol: as §3

DU-4475 [16] = details: 10000 nM; incubation time: 72 h
Protocol: as §3

HDQ-P1 [17] = details: 3000 nM; incubation time: 72 h
Protocol: (§4)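 DSRT, CellTiter-Blue viability, 72 h incubation. Signal is normalised to DMSO and benzethonium chloride controls. Value is the normalised response at dose 8.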

MDA-MB-453 [18] = details: 3000 nM; incubation time: 72 h
Protocol: as §4

CAL-51 [19] = details: 3000 nM; incubation time: 72 h
Protocol: as §4

CAL-148 [20] = details: 3000 nM; incubation time: 72 h
Protocol: as §4

CAL-85-1 [21] = details: 3000 nM; incubation time: 72 h
Protocol: as §4

DU-4475 [22] = details: 3000 nM; incubation time: 72 h
Protocol: as §4

Row | Compound | normalised viability (HDQ-P1 [1]) [%] | normalised viability (MDA-MB-453 [2]) [%] | normalised viability (MDA-MB-436) [%] | normalised viability (BT-474) [%] | normalised viability (BT-549) [%] | normalised viability (CAL-51 [3]) [%] | normalised viability (CAL-120) [%] | normalised viability (MDA-MB-231) [%] | normalised viability (HCC1599) [%] | normalised viability (MFM-223) [%] | normalised viability (HCC1937) [%] | normalised viability (Hs578T) [%] | normalised viability (MDA-MB-468) [%] | normalised viability (DU-4475 [4]) [%] | normalised viability (HDQ-P1 [5]) [%] | normalised viability (MDA-MB-453 [6]) [%] | normalised viability (CAL-51 [7]) [%] | normalised viability (CAL-148 [8]) [%] | normalised viability (CAL-85-1 [9]) [%] | normalised viability (DU-4475 [10]) [%] | normalised viability (HDQ-P1 [11]) [%] | normalised viability (MDA-MB-453 [12]) [%] | normalised viability (CAL-51 [13]) [%] | normalised viability (CAL-148 [14]) [%] | normalised viability (CAL-85-1 [15]) [%] | normalised viability (DU-4475 [16]) [%] | normalised viability (HDQ-P1 [17]) [%] | normalised viability (MDA-MB-453 [18]) [%] | normalised viability (CAL-51 [19]) [%] | normalised viability (CAL-148 [20]) [%] | normalised viability (CAL-85-1 [21]) [%] | normalised viability (DU-4475 [22]) [%]
1 | Cn1cncc1[C@@](N)(c1ccc(Cl)cc1)c1ccc2c(c1)c(-c1cccc(Cl)c1)cc(=O)n2C [Tipifarnib] | 74.6 | 102 | 94.1 | 109 | 86.3 | 108 | 77.6 | 82.2 | 92.7 | 84.6 | 95.6 | 88.9 | 96.8 | 99.4 | 52.5 | 77.2 | 60.2 | 44.9 | 64 | 43.9 | 49.6 | 19.9 | 20.4 | 26.7 | 47.2 | 15.7 | 66.8 | 50.1 | 63.4 | 42.6 | 65.2 | 42
2 | CCCCCCCCc1ccc(CCC(N)(CO)CO)cc1 [Fingolimod] | 116 | 114 | 100 | 121 | 94 | 119 | 91 | 94.8 | 88.3 | 92.5 | 116 | 98.1 | 106 | 103 | 87.4 | 107 | 113 | 93.7 | 93.1 | 99.3 | 0.67 | 2.6 | 91.8 | 62.2 | 4.87 | 136 | 95 | 95.2 | 109 | 88.8 | 91.7 | 117
3 | CN1CCN(CCOc2cc(OC3CCOCC3)c3c(Nc4c(Cl)ccc5c4OCO5)ncnc3c2)CC1 [Saracatinib] | 118 | 119 | 116 | 100 | 94.2 | 107 | 87.6 | 80.7 | 86.7 | 104 | 107 | 102 | 108 | 96.6 | 85.4 | 104 | 85.7 | 92.4 | 88.6 | 96.8 | 21.9 | 35.6 | 38.4 | 62 | 23.5 | 133 | 20.3 | 60.9 | 45 | 65.9 | 29.1 | 120
